Measurements published in the Kinase Knowledgebase extract (Sharma et al. 2016).

Target: MAPK14 (human) (UniProt Q16539)
Test: Inhibition of MAPK14 Kinase Activity
Conditions: for inhibition: concentration not given here

Chain of MAPK14 (human) (Q16539 whole entry, looked up): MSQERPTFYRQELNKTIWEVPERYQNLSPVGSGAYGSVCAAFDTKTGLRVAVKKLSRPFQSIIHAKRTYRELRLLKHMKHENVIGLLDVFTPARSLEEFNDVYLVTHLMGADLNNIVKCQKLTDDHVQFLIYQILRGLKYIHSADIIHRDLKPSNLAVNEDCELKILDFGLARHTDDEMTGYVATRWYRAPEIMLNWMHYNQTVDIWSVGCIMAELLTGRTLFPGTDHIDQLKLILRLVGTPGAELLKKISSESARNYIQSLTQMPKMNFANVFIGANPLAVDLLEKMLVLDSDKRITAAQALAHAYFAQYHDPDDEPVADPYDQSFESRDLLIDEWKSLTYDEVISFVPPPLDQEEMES

Row | IC50 | inhibition | SMILES
1 | < 5 µM |  | CCOC(=O)C1(C)C(=O)NCCN1C(=O)c1cc(C(C)(C)C)sc1NC(=O)Nc1cccc(Cl)c1Cl (configuration not stated)
2 | < 5 µM |  | CON(C)C(=O)CN1CCN(C(=O)c2cc(C(C)(C)C)sc2NC(=O)Nc2ccc(F)cc2Cl)CCC1=O
3 | < 5 µM |  | CC(C)(C)c1cc(C(=O)N2CCNC(=O)C2)c(NC(=O)Nc2ccc3c(c2)OCO3)s1
4 | < 5 µM |  | CC1(C)CN(C(=O)c2cc(C(C)(C)C)sc2NC(=O)Nc2cccc(Cl)c2Cl)CCNC1=O
5 | < 5 µM |  | CC(C)(C)OC(=O)N1CCN(C(=O)c2cc(C(C)(C)C)sc2NC(=O)Nc2cccc(Cl)c2Cl)CC1
6 |  | 76 to 100% | CC1C(=O)NCCN1C(=O)c1cc(C(C)(C)C)sc1NC(=O)Nc1ccc2ccccc2c1 (configuration not stated)
7 |  | 76 to 100% | COc1ccc(NC(=O)Nc2sc(C(C)(C)C)cc2C(=O)N2CCNC(=O)CC2)cc1Cl
8 | < 5 µM |  | CC(C)(C)c1cc(C(=O)N2CCNC(=O)C2(C)C)c(NC(=O)Nc2c(Cl)cncc2Cl)s1
9 | < 5 µM |  | CC(C)(C)c1cc(C(=O)N2CCNC(=O)C2)c(NC(=O)Nc2ccc(F)c(Cl)c2Cl)s1
10 |  | 51 to 75% | CC(C)(C)c1cc(C(=O)N2CCNC(=O)CC2)c(NC(=O)Nc2ccc(CN)cc2)s1
11 | < 5 µM |  | CC(C)(C)c1cc(C(=O)N2CCNC(=O)CC2)c(NC(=O)Nc2ccc(O)c(Cl)c2Cl)s1
12 | < 5 µM |  | CC(C)(C)c1cc(C(=O)N2CCNC(=O)C2(C)CCO)c(NC(=O)Nc2ccc(F)c(Cl)c2Cl)s1 (configuration not stated)
13 | < 5 µM |  | CC(C)(C)c1cc(C(=O)N2CCNC(=O)CC2)c(NC(=O)Nc2ccc(Cl)c(Cl)c2Cl)s1
14 |  | 76 to 100% | Cc1cccc(NC(=O)Nc2sc(C(C)(C)C)cc2C(=O)N2CCNC(=O)CC2)c1
15 | < 5 µM |  | COC(=O)CC1(C)C(=O)NCCN1C(=O)c1cc(C(C)(C)C)sc1NC(=O)Nc1ccc(F)c(Cl)c1Cl (configuration not stated)
16 | < 5 µM |  | CC(C)(C)c1cc(C(=O)N2CCC(=O)N(CCc3nnn[nH]3)CC2)c(NC(=O)Nc2cccc(Cl)c2Cl)s1

More lines, now with the values behind:

Row | SMILES | IC50 | inhibition
17 | CC(C)(C)c1cc(C(=O)NCC(F)(F)F)c(NC(=O)Nc2cccc(Cl)c2Cl)s1 | < 5 µM | 
18 | CC(C)(C)c1cc(NC(=O)Nc2cccc(Cl)c2Cl)c(C(=O)N2CCNS(=O)(=O)CC2)o1 | < 5 µM | 
19 | CCC1(C)C(=O)N(CCN(C)C)CCN1C(=O)c1cc(C(C)(C)C)sc1NC(=O)Nc1ccc(F)c(Cl)c1Cl (configuration not stated) | < 5 µM | 
20 | CC(C)(C)c1nc(C(=O)N2CCNC(=O)C2(C)C)c(NC(=O)Nc2cccc(Cl)c2Cl)s1 | < 5 µM | 
21 | O=C(Nc1cc(C(F)(F)F)c(Cl)cc1C(=O)N1CCS(=O)(=O)CC1)Nc1cccc(Cl)c1Cl | < 5 µM | 
22 | CCC1(C)C(=O)N(CC(=O)NCCN(C)C)CCN1C(=O)c1cc(C(C)(C)C)sc1NC(=O)Nc1cccc(Cl)c1Cl (configuration not stated) | < 5 µM | 
23 | Cc1noc(CN2CCN(C(=O)c3cc(C(C)(C)C)sc3NC(=O)Nc3cccc(Cl)c3Cl)C(C)(CC(N)=O)C2=O)n1 (configuration not stated) | < 5 µM | 
24 | CN(C)CCN1CCN(C(=O)c2cc(C(C)(C)C)sc2NC(=O)Nc2ccc(F)cc2Cl)C(C)(C)C1=O | < 5 µM | 
25 | CCc1ccccc1NC(=O)Nc1sc(C(C)(C)C)cc1C(=O)N1CCN(CCN(C)C)C(=O)C1(C)C | < 5 µM | 
26 | CON(C)C(=O)CN1CCN(C(=O)c2[nH]c(C(C)(C)C)cc2NC(=O)Nc2cccc(Cl)c2Cl)C(C)(C)C1=O | < 5 µM | 
27 | CN(C)CCN(C)C(=O)CN1CCN(C(=O)c2cc(C(C)(C)C)sc2NC(=O)Nc2cccc(Cl)c2Cl)C(C)(C)C1=O | < 5 µM | 
